In ChEMBL document CHEMBL1201862, “PubChem BioAssay data set” (2004):
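48-hour exposure; five concentrations; linearly interpolated endpoints. At the GI50, growth is halved.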 Active and inactive are the calls of the source. Rule as the data show it: active = GI50 up to about 1.1 µM and inactive = higher.

Experiments:
Experiment in all cases: NCI-60 cell line screen, 48 h
[1] = test system: UO-31
[2] = test system: SNB-78
[3] = test system: DMS-114
[4] = test system: Malme-3M
[5] = test system: HCT-116
[6] = test system: SK-MEL-28
[7] = test system: CCRF-CEM
[8] = test system: HCT-15
[9] = test system: MOLT-4
[10] = test system: SF-268
[11] = test system: RXF 393
[12] = test system: DMS-273
[13] = test system: OVCAR-3
[14] = test system: U-251
[15] = test system: LXFL 529
[16] = test system: SK-OV-3
[17] = test system: K562
[18] = test system: A549
[19] = test system: M14
[20] = test system: HCC 2998
[21] = test system: HL-60
[22] = test system: 786-0
[23] = test system: NCI-H522
[24] = test system: HOP-18
[25] = test system: SK-MEL-2
[26] = test system: RPMI-8226
[27] = test system: NCI-H460
[28] = test system: ACHN
[29] = test system: KM12
[30] = test system: SW-620
[31] = test system: NCI-H226
[32] = test system: UACC-257
[33] = test system: SF-539
[34] = test system: A498
[35] = test system: CAKI-1
[36] = test system: BT-549
[37] = test system: NCI/ADR-RES
[38] = test system: LOX IMVI
[39] = test system: SNB-19
[40] = test system: UACC-62
[41] = test system: HOP-92
[42] = test system: EKVX
[43] = test system: DU-145
[44] = test system: SNB-75
[45] = test system: MCF7
[46] = test system: PC-3
[47] = test system: MDA-MB-435
[48] = test system: OVCAR-5
[49] = test system: IGROV-1
[50] = test system: Hs-578T
[51] = test system: SF-295
[52] = test system: NCI-H23
[53] = test system: TK-10
[54] = test system: MDA-MB-231
[55] = test system: HT-29
[56] = test system: MDA-N
[57] = test system: SK-MEL-5
[58] = test system: OVCAR-8
[59] = test system: OVCAR-4
[60] = test system: HOP-62
[61] = test system: SN12C
[62] = test system: COLO 205
[63] = test system: SR
[64] = test system: T47D
[65] = test system: KM-20L2

Compound: CCOc1ccccc1NC(=O)C(=O)C1C(=O)Nc2ccccc2[S+]1[O-] (stereo not given)
- GI50 [1]: > 100 µM (inactive)
- GI50 [2]: > 100 µM (inactive)
- GI50 [3]: > 100 µM (inactive)
- GI50 [4]: > 100 µM (inactive)
- GI50 [5]: > 100 µM (inactive)
- GI50 [6]: > 100 µM (inactive)
- GI50 [7]: > 100 µM (inactive)
- GI50 [8]: > 100 µM
- GI50 [9]: > 100 µM (inactive)
- GI50 [10]: > 100 µM (inactive)
- GI50 [11]: > 100 µM (inactive)
- GI50 [12]: > 100 µM (inactive)
- GI50 [13]: > 100 µM (inactive)
- GI50 [14]: > 100 µM (inactive)
- GI50 [15]: > 100 µM (inactive)
- GI50 [16]: > 100 µM (inactive)
- GI50 [17]: > 100 µM (inactive)
- GI50 [18]: > 100 µM (inactive)
- GI50 [19]: > 100 µM (inactive)
- GI50 [20]: > 100 µM (inactive)
- GI50 [21]: > 100 µM (inactive)
- GI50 [22]: > 100 µM (inactive)
- GI50 [23]: > 100 µM (inactive)
- GI50 [24]: > 100 µM (inactive)
- GI50 [25]: > 100 µM (inactive)
- GI50 [26]: > 100 µM (inactive)
- GI50 [27]: > 100 µM (inactive)

Compound: Cc1cccc2c1NC(=O)/C2=N\Nc1ccccc1[N+](=O)[O-]
- GI50 [28]: 2.97 µM (inactive)
- GI50 [29]: 6.93 µM (inactive)
- GI50 [1]: 3.55 µM (inactive)
- GI50 [30]: 9.82 µM (inactive)
- GI50 [31]: 10.3 µM (inactive)
- GI50 [32]: 13.8 µM (inactive)
- GI50 [4]: 9.64 µM (inactive)
- GI50 [33]: 2.12 µM (inactive)
- GI50 [5]: 6.82 µM (inactive)
- GI50 [34]: 19.3 µM (inactive)
- GI50 [35]: 8.09 µM (inactive)
- GI50 [6]: 37.3 µM (inactive)
- GI50 [36]: 20.4 µM (inactive)
- GI50 [7]: 6.3 µM (inactive)
- GI50 [8]: 15.3 µM
- GI50 [9]: 21.2 µM (inactive)
- GI50 [37]: 4.74 µM (inactive)
- GI50 [38]: 3.64 µM (inactive)
- GI50 [10]: 6.04 µM (inactive)
- GI50 [39]: 30.5 µM (inactive)
- GI50 [40]: 14.5 µM (inactive)
- GI50 [41]: 2.38 µM (inactive)
- GI50 [11]: 3.66 µM (inactive)
- GI50 [42]: 1.58 µM (inactive)
- GI50 [43]: 17.7 µM (inactive)
- GI50 [44]: 11.1 µM (inactive)
- GI50 [13]: 8.13 µM (inactive)
- GI50 [45]: 4.6 µM (inactive)
- GI50 [14]: 2.37 µM (inactive)
- GI50 [46]: 10.9 µM (inactive)
- GI50 [47]: 22.6 µM (inactive)
- GI50 [48]: 26.2 µM (inactive)
- GI50 [16]: 4.34 µM (inactive)
- GI50 [49]: 2.37 µM (inactive)
- GI50 [50]: 4.85 µM (inactive)
- GI50 [51]: 4.24 µM (inactive)
- GI50 [17]: 17.5 µM (inactive)
- GI50 [18]: 4.49 µM (inactive)
- GI50 [19]: 19.4 µM (inactive)
- GI50 [20]: 7.11 µM (inactive)
- GI50 [52]: 6.67 µM (inactive)
- GI50 [53]: 6.84 µM (inactive)
- GI50 [54]: 2.58 µM (inactive)
- GI50 [21]: 78.5 µM (inactive)
- GI50 [22]: 4.27 µM (inactive)
- GI50 [55]: 4.35 µM (inactive)
- GI50 [56]: 20.1 µM (inactive)
- GI50 [23]: 0.871 µM (active)
- GI50 [57]: 6.93 µM (inactive)
- GI50 [58]: 3.85 µM (inactive)
- GI50 [59]: 4.05 µM (inactive)
- GI50 [25]: 16.7 µM (inactive)
- GI50 [60]: 3.52 µM (inactive)
- GI50 [61]: 9.89 µM (inactive)
- GI50 [62]: 30.4 µM (inactive)
- GI50 [26]: 10 µM (inactive)
- GI50 [63]: 2.7 µM (inactive)
- GI50 [64]: 8.83 µM (inactive)
- GI50 [27]: 6.9 µM (inactive)

Compound: COc1ccc(/C=C/c2cc(OC)c(OC)c(OC)c2)cc1O [E-COMBRETASTATIN A-4]
- GI50 [1]: 1.13 µM (inactive)
- GI50 [35]: 6.71 µM (inactive)
- GI50 [36]: 8.95 µM (inactive)
- GI50 [65]: 8.71 µM (inactive)
- GI50 [42]: 8.73 µM (inactive)
- GI50 [48]: 22.2 µM (inactive)
- GI50 [49]: 3.17 µM (inactive)
- GI50 [53]: 13.3 µM (inactive)
- GI50 [55]: 7.89 µM (inactive)
